Laboratory results as given in patent publication US20080262053A1 (priority 2005, published 2008).

Tests used:
[1] = system: patients with idiopathic RLS; details: continuous treatment over 6 months or more
Description: The severity of the symptoms was determined by means of the difference between the time of randomisation after 6 months and the results after the end of the trial, according to the international RLS scale. The results of 147 patients were evaluated.

[2] = system: patients suffering from moderate to severe RLS
From the text: The expression moderate to severe RLS is used when patients reach a points score of >15 on the international RLS scale. The scale runs from 0 (no RLS symptoms) to 40 (severest form of RLS). Thus, in moderate to severe RLS, the symptoms usually occur more than twice a week.

RLS = details: open trials

SMILES: CCCNC1CCc2nc(N)sc2C1.Cl.Cl (stereo not drawn) [pramipexole, 2-amino-6-n-propylamino-4,5,6,7-tetrahydrobenzo-thiazole dihydrochloride]
- effect of continuous treatment on RLS symptoms [1]: lasting improvement in the RLS symptoms
- patient-reported improvement in symptoms (quality of sleep, restlessness of the legs, etc.) ([2]; after only one week of treatment): significant improvements in all areas of symptoms
- subjective impression of treated patients ([2]; majority of treated patients): great or very great improvement
- improvement in the RLS symptoms ([2]; patients with moderate to severe RLS (>15 points on international RLS scale)): rapid improvement in the RLS symptoms
- duration of improvement in the symptoms in RLS patients (lasting effect) ([2]; pramipexole administered continuously): at least 6 months
- persistence of lasting clinical effects (RLS): ≥ 12 months
